The source of these data is US20230372425A1, “TOPICAL COMPOSITIONS CONTAINING MANUKA OIL AND PALMAROSA OIL FOR TREATING SKIN CONDITIONS” (Manuka Therapeutics Ltd., priority 2021, published 2023).

For one test, the system named is S. pyogenes. Briefly: MIC50 / MIC and MBC testing. Conditions: Table 35 (Example 25); 1% ECMO or 1% ECMT, 0.05% CBD pure isolate. Format: cell-based, Streptococcus pyogenes. The text has this:
(§1) The MIC50 test evaluates the lowest concentration of a test substance that prevents 50% of the growth of bacteria or fungi. This is a measure of the antibacterial or anti-fungal activity of the test sample. MBC is the lowest concentration of an antibacterial agent required to kill a bacterium. Similarly, Minimum fungicidal concentration (MFC) is the lowest concentration of an antifungal agent required to kill a fungus or a yeast.
(§2) The disclosed topical compositions may be tested for MIC50 and MBC using publicly available testing criteria. For example, test samples of the desired active compound can be prepared and serially diluted to give 11 or more different concentrations covering, for example, a 1000-fold range. For example, the test samples may include 50%-0.1% of a stock test sample (e.g., stock samples disclosed in Table 1) that are combined with select bacteria and fungi and incubated over a prescribed period of time. The MIC50 is useful to determine the lowest concentration of each test sample (mixture of active materials) that inhibits 50% of the growth of the microbe as determined by measurement of OD650 nm using a Versa Max 96 well plate reader. […]
(§3) Additional data Minimum Inhibitory Concentration (MIC) data on East Cape manuka oil and β-triketones provide further context. […] MIC data is measured at the first sign of bacterial growth inhibition. […]

A further test deals with S. aureus. As to the kind of experiment: MIC50 / MIC and MBC testing. Format: cell-based, Staphylococcus aureus. Conditions: Table 35 (Example 25); 1% ECMO or 1% ECMT, 0.05% CBD pure isolate.
Text: as §1, §2, §3

Test [1] has as its system gram positive bacteria S aureus, MRSA, S pyogenes, C. acnes. Briefly: Average MIC over gram positive bacteria (Example 25). Format: cell-based. The text has this: Cannabidiol (CBD) content in CBD oil can be highly variable. For this reason, pure CBD isolate was used in these examples. 1% ECMT or 1% ECMO were used in these examples. Since CBD oil contains 5-10% CBD, a concentration of 0.05% CBD pure isolate (equating to 0.5% to 1% whole CBD oil) was used in these tests.
The average MIC of CBD alone is 0.2 times that of ECMO-314. The average MIC of CBD alone is 0.1 times that of ECMT-314. […] The average MIC of ECMT alone is 0.8 times that of ECMT-314.

The next test relates to MRSA. Briefly: MIC50 / MIC and MBC testing. Format: cell-based, methicillin-resistant Staphylococcus aureus. To be noted: Table 35 (Example 25); 1% ECMO or 1% ECMT, 0.05% CBD pure isolate.
Text: as §1, §2, §3

For a further test, the system named is C. acnes. As to the kind of experiment: MIC50 / MIC and MBC testing. Format: cell-based, Cutibacterium acnes.
Text: as §1
The disclosed topical compositions may be tested for MIC50 and MBC using publicly available testing criteria. For example, test samples of the desired active compound can be prepared and serially diluted to give 11 or more different concentrations covering, for example, a 1000-fold range. For example, the test samples may include 50%-0.1% of a stock test sample (e.g., stock samples disclosed in Table 1) that are combined with select bacteria and fungi and incubated over a prescribed period of time. The MIC50 is useful to determine the lowest concentration of each test sample (mixture of active materials) that inhibits 50% of the growth of the microbe as determined by measurement of OD650 nm using a Versa Max 96 well plate reader. Measurement of cell concentration can be made at several time points.
Additional data Minimum Inhibitory Concentration (MIC) data on East Cape manuka oil and β-triketones provide further context. (Source: Plant & Food). MIC data is measured at the first sign of bacterial growth inhibition. These figures can be expected to be lower than MIC50 data, though this is not always the case. Published MIC data on palmarosa oil is also included for further context, In Vitro Antimicrobial and Antioxidant Activities of Some Cymbopogon Species in Essential Oil-Bearing Grasses—The genus Cymbopogon, Khunkitti, W. (2010) Chapter 6, Edited by A. Akhila., Medicinal and Aromatic Plants—Industrial Profiles, CRC Press Taylor & Francis Group. Example stock sample solutions of active mixtures that show promising results and are suitable for MIC50 and MBC testing are listed in Table 7. […]

Structures are written as SMILES.

Consider `C=C(C)[C@@H]1CCC(C)=C[C@H]1c1c(O)cc(CCCCC)cc1O` [0.05% CBD isolate, cannabidiol], for which the MIC with S. pyogenes stood at 0.002 % v/v; with S. aureus, 0.05 % v/v; in the test on MRSA it was 0.0125 % v/v; in the test on C. acnes (Table 35 (Example 25), 1% ECMO or 1% ECMT, 0.05% CBD pure isolate) it was 0.006 % v/v. For the same compound, in test [1], the “average MIC of ingredient alone, times that of ECMO-314” value amounted to 0.2 times. In test [1], the “average MIC of ingredient alone, times that of ECMT-314” value turned out to be 0.1 times. The “AVERAGE MIC” value in test [1] (Table 35 (Example 25)) is reported as 0.018 % v/v. Moreover, the “MIC of ingredient alone, times that of ECMT-314” value in the test with C. acnes (C. acnes considered on its own) stood at 0.95 times. Further, in the test on C. acnes (Table 24, studies with manuka oil β-triketones and CBD), the “MIC50, expressed as CBD” value is reported as 0.006% CBD (v/v) %.
